Patent US20220372491A1, “TREATMENT OF RENAL CYSTIC DISEASE” (MONASH UNIVERSITY, priority 2019, published 2022)

What was measured:
[1] = system: Inpp5e^Δ/Δ mice; test: Oral MK2206 treatment of Inpp5e^Δ/Δ mice; format: in vivo, mouse
Procedure: (§1) MK2206 treatment of Inpp5e^Δ/+ and Inpp5e^Δ/Δ mice commenced at P9 and were performed daily up to P14 before sacrifice at P15.MK2206 treatment of Pkd1 litters commenced at P4 and were performed daily up to P10 before sacrifice at P11. MK2206 was delivered orally by pipette in a solution of 27 mg/ml MK2206.2HCI (S1078, Selleck Chemicals) in 30% Capsitol (Cydex) and 5% glucose (49163-100ML, Sigma-Aldrich). Mice were dosed with a volume to deliver MK2206 up to 75 mg/kg as indicated. Mouse body weights were recorded daily. Solutions were stored at 4 degrees for up to 2 weeks. Mice were culled via cervical dislocation or decapitation, as most appropriate for their age following ethical guidelines. Procedures were all conducted by ethically approved and trained personnel. Mice were measured for body weight, with ear tissue, urine and kidneys collected. Ear tissue and urine was stored at -20 degrees. Newborn and P4 kidneys were fixed whole in 4% PFA for 16 hrs at 4 degrees, while the kidney capsule membrane was removed from older mouse kidneys, with the kidney cut into halves and fixed in 10% NBF for 16 hrs at room temperature. Half the kidney samples were sent for histological processing and the other half were snap frozen and stored at -80 degrees until processed for RNA, alpha analysis and/or western blotting. Kidney tissues were paraffin imbedded and sectioned at 4 μm for most analysis with the exception of being sectioned at 10 μm for cilia analysis. Antigen retrieval was performed in Citrate buffer pH6 using Tefal pressure cooker or using a DAKO […] system as indicated. Antibody staining was performed as described elsewhere (Cottle et al., (2013) Cell reports, 3: 427-441), except triton x-100 was included in blocking buffers, and cover slips mounted using Prolong Gold (Invitrogen). Antibodies and stains are listed below. Imaging was using an Aperio brightfield and fluorescent scanners (MHP), Olympus Fluoview 500 (Biochemistry Imaging Suite), Nikon C2 or Leica SP8 confocal microscope (MMI). All quantifications with the exception of Nanostring analysis and Chi squared tests for analysis of mendelian ratios, were analyzed using the unpaired Student's t-test assuming unequal variance in Microsoft Excel and P≤0.05 values were considered significant. One or two tailed tests were selected as appropriate for hypothesis. Values presented are Mean±Standard Error of the Mean (S.E.M). 2K/BW % was calculated as the combined kidney weight over total body weight percentage. Albumin Creatinine Ratios (ACR) were calculated as μg Albumin over mg of Creatinine. Cyst identity was measured as a proportion of cyst epithelial area for each marker out of total sum of cyst epithelial areas of all markers (adjusted for marker co-localisation). Cystic index % is calculated as the proportion of cystic space occupied out of total kidney area in DBA-stained kidney longitudinal cross-sections. Cyst number reflects the average number of cysts counted per DBA-stained longitudinal kidney cross section. Cyst size is the average cross-sectional cyst size (mm^2) of cysts sampled from DBA-stained kidney longitudinal cross sections. Due to escape of Cre activity at the Aurka locus in cysts, unless otherwise indicated references to Inpp5e^Δ/Δ; Aurka^Δ/Δ immunostains and their quantifications reflect non-cystic regions throughout this study.

[2] = system: Pkd1^Δ/Δ mice; test: Oral MK2206 treatment of Pkd1^Δ/Δ mice (ADPKD model); format: in vivo, mouse
Procedure: as §1

[3] = biological target: mTOR (Mus musculus, UniProt P26883+Q9JLN9); settings: model not stated; cited from earlier work
[4] = oral, daily from P9, sacrificed at P15, vs vehicle
[5] = daily P4 to P10, P11, dose dependent, up to 75 mg/kg

Row | Structure (SMILES) | % AKT pS473 high collecting duct cells ([1]; cystic Inpp5e^Δ/Δ and control mice, Vehicle or MK2206) | acquisition of cysts (average cyst number per section) [1, 4] | ciliation [1, 4] | cyst size [1, 4] | cystic index [1, 4] | kidney size (2K/BW %) [1, 4] | proportion of AURKA high cells [1, 4] | proportion of collecting duct cells with phosphorylated AKT (AKT pT308 high) [1, 4] | cyst number [2, 5] | cyst size [2, 5] | cystic index [2, 5] | kidney to body weight ratio [2, 5] | severity of PKD ([2]; daily P4 to P10, sacrifice at P11, up to 75 mg/kg) | cyst number [3] | cyst size [3]
1 | NC1(c2ccc(-c3nc4ccn5c(=O)[nH]nc5c4cc3-c3ccccc3)cc2)CCC1 [MK2206] | reduces AKT pS473 detection | slowed the acquisition of cysts | increased ciliation | reduced cyst size | reduced the cystic index | significantly smaller than vehicle treated controls | also reduced | reduction in the proportion of collecting duct cells with phosphorylated AKT | reducing | reducing | reducing | reducing | reduce the severity of PKD in a dose dependent manner | – | –
2 | CO[C@H]1C[C@@H]2CC[C@@H](C)[C@@](O)(O2)C(=O)C(=O)N2CCCC[C@H]2C(=O)O[C@H]([C@H](C)C[C@@H]2CC[C@@H](OCCO)[C@H](OC)C2)CC(=O)[C@H](C)/C=C(\C)[C@@H](O)[C@@H](OC)C(=O)[C@H](C)C[C@H](C)/C=C/C=C/C=C/1C [Everolimus] | – | – | – | – | – | – | – | – | – | – | – | – | – | not number | reduction in cyst size
